Laboratory results from patent US10201546B2, “Quinolinyl modulators of RORγt” (Janssen Pharmaceutica NV, priority 2013, dated 2019).

What follows are compounds tested against human RORγt LBD fused to the DNA binding domain of the GAL4 protein (Homo sapiens (Human), UniProt P51449) (assay: RORγt (LBD) reporter assay in HEK293T cells). Settings: @ 6 μM.
Assay type: cell-based
Excerpt: A reporter assay was used to test functional activity of RORγt modulatory compounds on transcriptional activation driven by the RORγt LBD. Cells used in the assay were co-transfected with two constructs. The first construct, pBIND-RORγt LBD, contained the wild type human RORγt LBD fused to the DNA binding domain of the GAL4 protein. The second construct, pGL4.31 (Promega Cat no. C935A), contained multiple GAL4 responsive DNA elements upstream of firefly luciferase.
The pBIND vector contains the GAL4 DNA Binding Domain (GAL4 DBD) and the renilla luciferase gene under control of the SV40 promoter. Renilla luciferase expression serves as a control for transfection efficiency and cell viability.
The reporter assay was performed by transiently transfecting HEK293T cells with 5 μg of pBIND-RORγt LBD or pBIND-RORγt LBD-AF2 and 5 μg pGL4.31 (Promega Cat no. C935A) using Fugene 6 (Invitrogen Cat no. E2691) at a 1:6 ratio of DNA:Fugene 6 in a T-75 flask in which cells were at least 80% confluent. Twenty four hours after bulk transfection, cells were plated into 96-well plates at 50,000 cells/well in phenol-red free DMEM containing 5% Lipid Reduced FCS and Pen/Strep. Six hours after plating, cells were treated with compounds for 24 hours. Media was removed and cells were lysed with 50 μL 1× Glo Lysis Buffer (Promega). Dual Glo Luciferase Reagent (50 μL/well) was then added and firefly luciferase luminescence was read on an Envision after a ten minute incubation. Finally, Stop and Glo reagent (50 L/well) was added and renilla luciferase luminescence was read on an Envision after a ten minute incubation. To calculate the effect of compounds on RORγt activity, the ratio of firefly to renilla luciferase was determined and plotted against compound concentration. Agonist compounds increase RORγt-driven luciferase expression, and antagonist or inverse agonist compounds decrease luciferase expression.

Sequence of human RORγt LBD fused to the DNA binding domain of the GAL4 protein (P51449 258-518): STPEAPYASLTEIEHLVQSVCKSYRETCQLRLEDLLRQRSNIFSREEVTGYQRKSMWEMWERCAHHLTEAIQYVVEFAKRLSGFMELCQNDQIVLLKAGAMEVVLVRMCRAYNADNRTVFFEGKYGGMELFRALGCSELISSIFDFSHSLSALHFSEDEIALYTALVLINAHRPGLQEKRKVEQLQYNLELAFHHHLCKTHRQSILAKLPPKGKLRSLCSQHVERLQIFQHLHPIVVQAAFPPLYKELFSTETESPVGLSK

Row | Structure (SMILES) | RORγt (LBD) Reporter Assay, % inhibition @ 6 μM
1 | COc1nc2ccc(C(O)(c3ccc(C)nc3C)c3cnnn3C)cc2c(Cl)c1CC1CCC(F)(F)CC1 (single isomer, unassigned) [Example 1c, (4-Chloro-3-((4,4-difluorocyclohexyl)methyl)-2-methoxyquinolin-6-yl)(2,6-dimethylpyridin-3-yl)(1-methyl-1H-1,2,3-triazol-5-yl)methanol] | 66%
2 | COc1nc2ccc(C(O)(c3cncn3C)C3CCN(C(C)=O)CC3)cc2c(Cl)c1CC1CCOCC1 (single isomer, unassigned) [Example 5c, 1-(4-((4-Chloro-2-methoxy-3-((tetrahydro-2H-pyran-4-yl)methyl)quinolin-6-yl)(hydroxy)(1-methyl-1H-imidazol-5-yl)methyl)piperidin-1-yl)ethanone] | 36%
3 | COc1nc2ccc(C(O)(c3ccc(C)nc3C)c3cnnn3C)cc2c(Cl)c1C (single isomer, unassigned) [Example 12b, (4-Chloro-2-methoxy-3-methylquinolin-6-yl)(2,6-dimethylpyridin-3-yl)(1-methyl-1H-1,2,3-triazol-5-yl)methanol] | 23%
4 | COc1nc2ccc(C(O)(c3ccc(C)nc3C)c3cnnn3C)cc2c(Cl)c1C (single isomer, unassigned) [Example 12c, (4-Chloro-2-methoxy-3-methylquinolin-6-yl)(2,6-dimethylpyridin-3-yl)(1-methyl-1H-1,2,3-triazol-5-yl)methanol] | 93%
5 | COc1nc2ccc(C(O)(c3ccc(C)nc3C)c3cnnn3C)cc2c(Cl)c1CC1CC1 (single isomer, unassigned) [Example 14b, (4-Chloro-3-(cyclopropylmethyl)-2-methoxyquinolin-6-yl)(2,6-dimethylpyridin-3-yl)(1-methyl-1H-1,2,3-triazol-5-yl)methanol] | 72%
6 | COc1nc2ccc(C(O)(c3ccc(C)nc3C)c3cnnn3C)cc2c(Cl)c1CC1CC1 (single isomer, unassigned) [Example 14c, (4-Chloro-3-(cyclopropylmethyl)-2-methoxyquinolin-6-yl)(2,6-dimethylpyridin-3-yl)(1-methyl-1H-1,2,3-triazol-5-yl)methanol] | 98%

Same assay, conditions: HEK-293T, read-out: RORγt (LBD) Reporter Assay, % inhibition @ 6 μM, @ 6 μM

Row | Structure (SMILES) | inhibition at 6 µM
7 | COc1nc2ccc(C(O)(c3ccc(C)nc3C)c3cnnn3C)cc2c(Cl)c1CC1CCC(F)(F)CC1 (single isomer, unassigned) [Example 1b, (4-Chloro-3-((4,4-difluorocyclohexyl)methyl)-2-methoxyquinolin-6-yl)(2,6-dimethylpyridin-3-yl)(1-methyl-1H-1,2,3-triazol-5-yl)methanol] | 78%
8 | COc1nc2ccc(C(O)(c3cncn3C)C3CCN(C(C)=O)CC3)cc2c(Cl)c1CC1CCOCC1 (single isomer, unassigned) [Example 5b, 1-(4-((4-Chloro-2-methoxy-3-((tetrahydro-2H-pyran-4-yl)methyl)quinolin-6-yl)(hydroxy)(1-methyl-1H-imidazol-5-yl)methyl)piperidin-1-yl)ethanone] | 33%
9 | COc1nc2ccc(C(O)(c3ccc(C)nc3C)c3cnnn3C)cc2c(Cl)c1OC1CCN(C)CC1 (single isomer, unassigned) [Example 65b, {4-Chloro-2-methoxy-3-[(1-methylpiperidin-4-yl)oxy]quinolin-6-yl}(2,6-dimethylpyridin-3-yl)(1-methyl-1H-1,2,3-triazol-5-yl)methanol] | 39%
10 | COc1nc2ccc(C(O)(c3ccc(C)nc3C)c3cnnn3C)cc2c(Cl)c1OCc1ncccn1 (single isomer, unassigned) [Example 66b, [4-Chloro-2-methoxy-3-(pyrimidin-2-ylmethoxy)quinolin-6-yl](2,6-dimethylpyridin-3-yl)(1-methyl-1H-1,2,3-triazol-5-yl)methanol] | -129%
